Measurements taken from patent publication EP1067939B1, “USE OF STEROIDAL ALKALOID DERIVATIVES AS INHIBITORS OF HEDGEHOG PROTEIN SIGNALING PATHWAYS” (The Johns Hopkins University, priority 1998, dated 1999).

Key:
Shh = molecular target: T1, Shh (Mus musculus, UniProt Q62226); test: Shh processing in transiently-transfected COS-7 or QT6 cells; format: cell-based
T1 construct: expressed in transfected cells; host or cells: HK293 cells, Ecdysone-Inducible Mammalian Expression System (Invitrogen)

vibrissa follicle = test: Vibrissa follicle explant cultures; format: cell-based, mouse
Procedure: Vibrissa follicle explants were established using CD- I mouse embryos at 13.5 days of gestation according to a previously described protocol (Hirai et al., 1989), with minor midifications. Vibrissa pads were transferred onto Nuclepore filters (13 mm, 8 µm pores), and floated on, 2 ml of medium [DMEM (Life Technologies. Gaithersburg, MD) + Ham's F12 medium (Life Technologies) (1:1), with 1% FCS (Intergen, Purchase. NY), penicillin (50 units/ml) and streptomycin (50 gg/ml) (Life Technologies)] in 6-well plates. […] Explants were fed fresh medium every two days. Microdissection was performed with the aid of a Nikon SMZ-2T stereomicroscope and photomicrographs were taken using an Olympus OM-4 camera. Cycloparnine was stored at -20 as a 10 mM stock in 95% EtOH.
RNA was obtained by solubilizing individual explants in TriZol (Life Sciences) and isolating as recommended by the manufacturer. cDNA was synthesized using SuperScript II Rnase H reverse transcriptase with random primers (Life Technologies), and RT-PCR performed using the following primers: MHKA1 (318 bp product), (forward 5'-[…]-3' and reverse 5'-[…]-3'); hacl-1 (308 bp product), (forward 5'-[…].3 and reverse 5'-[…]-3'); profilaggrin (330 bp product), (forward 5-[…]-3' and reverse 5'-[…]-3') (Bickenbach et al., 1995); P actin (421 bp product), (for-ward 5'-[…]-3' and reverse 5'[…]-3') (Walterhouse et al., 1993). The following PCR conditions were used for MHKA1. […]
Explants were established using vibrissa pads obtained from mice at 13.5 days of gestation (Hirai et al., 1989). […] These follicles contained hair shafts and expressed genes encoding mouse hair keratin A I (MHKA 1) (Kaytes et al., 199 1) and a hair cortex-specific marker Hacl- 1 (Huh et al., 1994), detected by RT-PCR (Fig. 11B). […] In keeping with our results obtained using Shh mutant skin, hair-specific transcripts are detected in cycloparnine-treated grafts (Fig. 11B) despite their altered development, providing further support for the notion that biochemical differentiation of the follicle is not necessarily coupled to its morphogenesis.

[1] = cultured vibrissa explants, RT-PCR

T1 sequence (Q62226 25-437): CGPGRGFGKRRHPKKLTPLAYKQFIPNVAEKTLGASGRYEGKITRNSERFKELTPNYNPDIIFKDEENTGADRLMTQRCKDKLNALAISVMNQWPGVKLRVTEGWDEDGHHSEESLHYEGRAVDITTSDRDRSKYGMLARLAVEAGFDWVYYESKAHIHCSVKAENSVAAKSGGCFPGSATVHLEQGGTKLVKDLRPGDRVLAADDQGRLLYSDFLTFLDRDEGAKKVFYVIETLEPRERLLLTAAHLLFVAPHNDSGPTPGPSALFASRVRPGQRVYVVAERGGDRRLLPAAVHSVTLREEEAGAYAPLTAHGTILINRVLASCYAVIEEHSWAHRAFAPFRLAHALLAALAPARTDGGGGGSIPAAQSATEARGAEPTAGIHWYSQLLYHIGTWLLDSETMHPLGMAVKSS

| SMILES | Shh processing efficiency (Shh) | late-stage follicle differentiation markers (vibrissa follicle; [1]) | profilaggrin mRNA (epidermal differentiation) (vibrissa follicle; [1]) | Morphogenesis of vibrissa follicles (vibrissa follicle; cyclopamine present in the medium for the duration of the experiment, concentration printed as I ∼M) |
| --- | --- | --- | --- | --- |
| C[C@H]1CC[C@]2(NC1)O[C@H]1C[C@H]3[C@@H]4CC[C@H]5C[C@@H](O)CC[C@]5(C)[C@H]4CC[C@]3(C)[C@H]1[C@@H]2C [Tomatidine, tomatidine] | did not observe any effect | – | – | – |
| CC1=C2C[C@H]3[C@@H](CC=C4C[C@@H](O)CC[C@@]43C)[C@@H]2CC[C@]12O[C@@H]1C[C@H](C)CN[C@H]1[C@H]2C [Cyclopamine, cyclopamine] | – | detected | accumulate profilaggrin mRNA | blocked |
